Source: patent US20130309306A1, “INTRAPULMONARY BENZODIAZEPINE FOR THE TREATMENT AND PREVENTION OF SEIZURES” (priority 2010, published 2013)

Tested on: PTZ-induced seizures
Test: PTZ seizure threshold test, tonic extension endpoint, Example 2
Assay type: in vivo, mice
Experimental: NIH Swiss mice (22-30 g) were kept in a vivarium under controlled environmental conditions (temperature, 22-26° C.; humidity, 40-50%) with an artificial 12-h light/dark cycle. Wood chips were used in all cages. Experiments were performed during the light phase of the light/dark cycle after a minimum 30-min period of acclimation to the experimental room. The animal facilities were fully accredited by the Association for Assessment and Accreditation of Laboratory Animal Care. All studies were performed under protocols approved by the Animal Care and Use Committee of the University of California, Davis in strict compliance with the Guide for the Care and Use of Laboratory Animals of the National Research Council (National Academy Press, Washington, D.C.; on the internet at nap.edu/readingroom/books/labrats/).
Midazolam was administered as a commercially available injectable solution (midazolam hydrochloride, 10 mg/10 ml; APP Pharmaceuticals, Schaumburg, Ill., USA) containing sodium chloride (0.8% w/v), disodium edetate (0.01% w/v), benzyl alcohol as preservative (1% v/v) with HCl to adjust the pH 3-3.6. Pentylenetetrazol (PTZ) (Sigma-Aldrich, St. Louis, Mo., USA) was dissolved in 0.9% w/v saline. The remaining test substances were all obtained from Tocris Bioscience (Ellisville, Mo., USA) except for clonazepam, which was from Sigma-Aldrich. Finasteride was dissolved in 25% hydroxypropyl-β-cyclodextrin (Trappsol; Cyclodextrin Technologies Development, High Springs, Fla., U.S.A.). Metyrapone was dissolved in double distilled water and PK 11195 and clonazepam were suspended in 1% Tween 80 and adjusted to volume with saline.
PTZ seizure threshold was determined according to a protocol used previously in our laboratory (Dhir et al., 2011). Intravenous PTZ elicits a sequence of seizure signs beginning with twitch and progressing to clonus and tonic limb extension. In the present study, tonic extension was used as the endpoint. […] It is noteworthy that this is the endpoint originally used in studies characterizing the actions of midazolam against PTZ seizures in mice (Pieri, 1983 Br J Clin Pharmacol 16 Suppl 1: 17S-27S). A 27 gauge-¾ inch “butterfly” needle was inserted into the lateral tail vein and the needle was secured with a narrow piece of adhesive tape. The animal was placed inside a 2 L glass beaker with free aeration from the top and allowed to move freely. The needle was connected by polyethylene tubing to a Beckton, Dickinson 1 ml syringe mounted on an infusion pump (Model ‘11’ plus syringe pump; Harvard Apparatus, Holliston, Mass.). PTZ solution (10 mg/ml) was infused at a constant rate of 0.5 ml/min. The infusion was stopped at 3 min or at the onset of tonic extension, whichever occurred first. The threshold value (mg/kg) for tonic extension was determined according to the formula: (infusion duration [sec]×infusion rate [ml/min]×PTZ concentration [mg/ml]×1000)/(60 [sec]×weight of mouse [g]).
In an initial experiment, the dose-response relationship for midazolam elevation of seizure threshold was assessed at doses of 100 μg/kg to 5 mg/kg (15 min pretreatment time). […] PK 11195 was used at a dose (15 mg/kg) as in the study of Ugale et al. (2004 Brain Res. 2004 Oct. 8; 1023(1):102-11). Clonazepam was administered at a dose of 100 μg/kg (Akula et al., 2009). The volume of all intraperitoneal injections was 10 ml/kg.
Results are expressed as mean±S.E.M.; the significance of the difference in the responses of treatment groups with respect to control is based on one-way analysis of variance (ANOVA) followed by specific post-hoc comparisons using Tukey's test. Differences are considered statistically significant when the probability of type I error was less than 0.05.

CCC(C)N(C)C(=O)c1cc2ccccc2c(-c2ccccc2Cl)n1 (centres unmarked) [PK 11195, 1-(2-chlorophenyl)-N-methyl-N-(1-methylpropyl)-3-isoquinolinecarboxamide]
PTZ seizure threshold, by itself (PK 11195 15 mg/kg i.p.): did not affect the seizure threshold | effect on seizure threshold elevation produced by clonazepam (PK 11195 15 mg/kg i.p. 30 min before clonazepam (FIG. 11 lower panel)): did not reduce the seizure threshold elevation | effect on threshold elevation produced by midazolam (PK 11195 15 mg/kg i.p. 30 min before midazolam 500 μg/kg i.p. (FIG. 10)): significantly reduced the elevation in threshold

CCOC(=O)c1ncn2c1CN(C)C(=O)c1cc(F)ccc1-2 [flumazenil]
effect on threshold elevation caused by intratracheal midazolam (flumazenil 5 mg/kg i.p. 5 min before midazolam 100 and 200 μg/kg intratracheal (FIG. 12)): did abolish the threshold elevation | PTZ seizure threshold, pretreatment by itself (flumazenil 5 mg/kg i.p. (FIG. 12)): did not alter the PTZ seizure threshold

O=C1CN=C(c2ccccc2Cl)c2cc([N+](=O)[O-])ccc2N1 [clonazepam]
increase in threshold for tonic extension (vs vehicle only control) (clonazepam 100 μg/kg i.p., 15 min before i.v. PTZ infusion, in the absence of finasteride): 2.8 fold

CC(C)(C)NC(=O)[C@H]1CC[C@H]2[C@@H]3CC[C@H]4NC(=O)C=C[C@]4(C)[C@H]3CC[C@]12C [finasteride]
effect on threshold elevation caused by intratracheal midazolam (finasteride 100 mg/kg i.p. 5 min before midazolam 100 μg/kg intratracheal (FIG. 13)): did significantly reduce the threshold elevation | effect on threshold elevation caused by midazolam (finasteride 100 mg/kg i.p. 5 min before midazolam 500 μg/kg i.p. (FIG. 8)): partially reduce the threshold elevation | effect on seizure threshold elevation produced by clonazepam (finasteride 100 mg/kg i.p. before clonazepam 100 μg/kg i.p. (FIG. 11 upper panel)): did reduce the seizure threshold elevation | PTZ seizure threshold, pretreatment by itself (finasteride 100 mg/kg i.p., no midazolam (FIG. 8)): did not alter the PTZ seizure threshold | PTZ seizure threshold, pretreatment by itself (finasteride 50 and 100 mg/kg i.p. (FIG. 13)): did not alter the PTZ seizure threshold | effect on seizure threshold elevation produced by clonazepam (finasteride before lower dose of clonazepam 25 μg/kg): trend toward an effect of finasteride, although it did not reach statistical significance

CC(C)(C(=O)c1cccnc1)c1cccnc1 [metyrapone]
PTZ seizure threshold when administered prior to midazolam (metyrapone 100 mg/kg i.p. 15 min before midazolam 500 μg/kg i.p. (FIG. 9)): further increment in threshold | PTZ seizure threshold, by itself (metyrapone 100 mg/kg i.p. (FIG. 9)): significant elevation in the threshold
